According to patent US20250171495A1, “MUTLI-TARGETED SERINE PROTEASE INHIBITORS FOR TREATMENT OF CANCER AND VIRAL INFECTION” (Washington University, priority 2023, published 2025):

Key:
Format in all cases: biochemical
[1] = target: TMPRSS2 (Homo sapiens, UniProt O15393); assay: PS-SCL / HyCoSuL substrate specificity screening, TMPRSS2; conditions: for P2 Position Substrate Activity for TMPRSS2 (percent substrate cleavage/proteolysis): residue fixed at P2 position of substrate library; for P2 Position Substrate Activity for TMPRSS2 (percent substrate cleavage/proteolysis) / P3 Position Substrate Activity for TMPRSS2 (percent substrate cleavage/proteolysis) / P4 Position Substrate Activity for TMPRSS2 (percent substrate cleavage/proteolysis): best recognized amino acid set to 100%; for P3 Position Various Amino Acids Substrate Activity, TMPRSS2 (percent substrate cleavage/proteolysis) / P3 Position Substrate Activity for TMPRSS2 (percent substrate cleavage/proteolysis): residue fixed at P3 position of substrate library; for P4 Position Various Amino Acids Substrate Activity, TMPRSS2 (percent substrate proteolysis/cleavage) / P4 Position Substrate Activity for TMPRSS2 (percent substrate cleavage/proteolysis): residue fixed at P4 position of substrate library
[2] = target: T1, matriptase (Homo sapiens, UniProt Q9Y5Y6); assay: HyCoSuL P4-P2 substrate specificity screening, matriptase; conditions: for P2 Position Substrate Activity for matriptase (percent substrate cleavage/proteolysis): residue fixed at P2 position; for P2 Position Substrate Activity for matriptase (percent substrate cleavage/proteolysis) / P3 Position Substrate Activity for matriptase (percent substrate cleavage/proteolysis) / P4 Position Substrate Activity for matriptase (percent substrate cleavage/proteolysis): P1-Arg HyCoSuL, 100 μM, best recognized amino acid set to 100%; for P3 Position Various Amino Acids Substrate Activity, matriptase (percent substrate cleavage/proteolysis): residue fixed at P3 position of substrate library; for P3 Position Substrate Activity for matriptase (percent substrate cleavage/proteolysis): residue fixed at P3 position; for P4 Position Various Amino Acids Substrate Activity, matriptase (percent substrate proteolysis/cleavage): residue fixed at P4 position of substrate library; for P4 Position Substrate Activity for matriptase (percent substrate cleavage/proteolysis): residue fixed at P4 position
T1 sequence (Q9Y5Y6 1-855): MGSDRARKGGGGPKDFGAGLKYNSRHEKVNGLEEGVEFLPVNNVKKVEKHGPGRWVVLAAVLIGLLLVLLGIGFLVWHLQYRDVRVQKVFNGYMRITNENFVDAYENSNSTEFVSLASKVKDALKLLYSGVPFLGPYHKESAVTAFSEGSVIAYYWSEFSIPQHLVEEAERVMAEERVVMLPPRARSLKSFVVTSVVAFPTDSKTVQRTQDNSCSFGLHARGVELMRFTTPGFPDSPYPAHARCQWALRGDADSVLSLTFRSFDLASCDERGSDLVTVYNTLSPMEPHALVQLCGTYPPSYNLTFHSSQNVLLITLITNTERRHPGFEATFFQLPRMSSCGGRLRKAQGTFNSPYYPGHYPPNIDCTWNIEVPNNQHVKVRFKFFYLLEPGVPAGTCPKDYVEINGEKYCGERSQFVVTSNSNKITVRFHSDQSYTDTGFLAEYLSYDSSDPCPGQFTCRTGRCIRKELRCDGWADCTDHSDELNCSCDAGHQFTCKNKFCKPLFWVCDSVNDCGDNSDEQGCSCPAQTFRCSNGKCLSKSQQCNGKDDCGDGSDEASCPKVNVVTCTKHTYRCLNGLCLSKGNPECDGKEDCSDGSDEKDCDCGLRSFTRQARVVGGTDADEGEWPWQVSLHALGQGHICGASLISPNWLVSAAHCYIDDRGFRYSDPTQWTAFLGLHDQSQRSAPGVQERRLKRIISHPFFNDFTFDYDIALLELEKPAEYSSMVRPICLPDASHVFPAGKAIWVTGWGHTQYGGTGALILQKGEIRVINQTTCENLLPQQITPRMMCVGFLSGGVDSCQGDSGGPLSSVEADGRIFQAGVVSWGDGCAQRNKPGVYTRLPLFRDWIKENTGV

[3] = target: T2, HGFA (Homo sapiens, UniProt Q04756); assay: HyCoSuL P4-P2 substrate specificity screening, HGFA; conditions: for P2 Position Substrate Activity for HGFA (percent substrate cleavage/proteolysis): residue fixed at P2 position; for P2 Position Substrate Activity for HGFA (percent substrate cleavage/proteolysis) / P3 Position Substrate Activity for HGFA (percent substrate cleavage/proteolysis) / P4 Position Substrate Activity for HGFA (percent substrate cleavage/proteolysis): P1-Arg HyCoSuL, 100 μM, best recognized amino acid set to 100%; for P3 Position Substrate Activity for HGFA (percent substrate cleavage/proteolysis): residue fixed at P3 position; for P4 Position Substrate Activity for HGFA (percent substrate cleavage/proteolysis): residue fixed at P4 position; for P3 Position Various Amino Acids Substrate Activity, HGFA (percent substrate cleavage/proteolysis): residue fixed at P3 position of substrate library; for P4 Position Various Amino Acids Substrate Activity, HGFA (percent substrate proteolysis/cleavage): residue fixed at P4 position of substrate library
T2 sequence (Q04756 373-655): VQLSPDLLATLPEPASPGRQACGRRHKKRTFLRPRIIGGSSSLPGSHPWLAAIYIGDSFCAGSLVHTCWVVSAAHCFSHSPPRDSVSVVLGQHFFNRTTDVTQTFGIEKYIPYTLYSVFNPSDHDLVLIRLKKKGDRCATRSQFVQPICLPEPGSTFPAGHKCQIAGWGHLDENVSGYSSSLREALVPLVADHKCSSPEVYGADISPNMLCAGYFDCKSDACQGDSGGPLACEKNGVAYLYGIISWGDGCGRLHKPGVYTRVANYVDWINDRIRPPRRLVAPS

[4] = target: T3, hepsin (Homo sapiens, UniProt P05981); assay: HyCoSuL P4-P2 substrate specificity screening, hepsin; conditions: for P2 Position Substrate Activity for hepsin (percent substrate cleavage/proteolysis): residue fixed at P2 position; for P2 Position Substrate Activity for hepsin (percent substrate cleavage/proteolysis) / P3 Position Substrate Activity for hepsin (percent substrate cleavage/proteolysis) / P4 Position Substrate Activity for hepsin (percent substrate cleavage/proteolysis): P1-Arg HyCoSuL, 100 μM, best recognized amino acid set to 100%; for P3 Position Substrate Activity for hepsin (percent substrate cleavage/proteolysis): residue fixed at P3 position; for P4 Position Substrate Activity for hepsin (percent substrate cleavage/proteolysis): residue fixed at P4 position; for P3 Position Various Amino Acids Substrate Activity, hepsin (percent substrate cleavage/proteolysis): residue fixed at P3 position of substrate library; for P4 Position Various Amino Acids Substrate Activity, hepsin (percent substrate proteolysis/cleavage): residue fixed at P4 position of substrate library
T3 construct: purchased R&D Systems 4776-SE-010
T3 sequence (P05981 163-417 limits assumed): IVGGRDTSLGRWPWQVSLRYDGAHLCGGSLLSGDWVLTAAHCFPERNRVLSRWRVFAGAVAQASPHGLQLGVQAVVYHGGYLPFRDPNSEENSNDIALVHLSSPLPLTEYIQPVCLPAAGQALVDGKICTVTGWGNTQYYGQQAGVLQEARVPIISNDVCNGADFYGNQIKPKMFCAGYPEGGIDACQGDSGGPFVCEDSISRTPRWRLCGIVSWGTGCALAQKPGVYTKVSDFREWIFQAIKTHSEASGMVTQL
T3 sequence (P05981 1-162 partner limits assumed): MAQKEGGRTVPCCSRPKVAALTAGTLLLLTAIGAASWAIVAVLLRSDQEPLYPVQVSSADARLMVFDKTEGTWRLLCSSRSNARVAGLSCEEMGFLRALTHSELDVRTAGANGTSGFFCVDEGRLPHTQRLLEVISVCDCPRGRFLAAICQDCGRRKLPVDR

Sequence of TMPRSS2 (O15393 whole entry): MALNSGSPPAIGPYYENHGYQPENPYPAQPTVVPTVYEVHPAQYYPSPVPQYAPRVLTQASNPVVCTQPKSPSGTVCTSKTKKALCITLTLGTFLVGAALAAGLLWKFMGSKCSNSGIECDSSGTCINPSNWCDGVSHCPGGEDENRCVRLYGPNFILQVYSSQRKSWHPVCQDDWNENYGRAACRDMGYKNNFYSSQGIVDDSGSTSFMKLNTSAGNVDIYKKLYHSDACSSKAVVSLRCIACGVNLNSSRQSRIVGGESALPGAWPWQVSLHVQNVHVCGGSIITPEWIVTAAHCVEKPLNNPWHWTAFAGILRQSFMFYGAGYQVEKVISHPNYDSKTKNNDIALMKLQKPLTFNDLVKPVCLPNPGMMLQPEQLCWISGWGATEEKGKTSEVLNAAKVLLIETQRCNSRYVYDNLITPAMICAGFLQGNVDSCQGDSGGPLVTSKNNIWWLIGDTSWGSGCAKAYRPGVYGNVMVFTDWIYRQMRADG

Compound | P2 Position Substrate Activity for TMPRSS2 (percent substrate cleavage/proteolysis) [1] | P3 Position Various Amino Acids Substrate Activity, TMPRSS2 (percent substrate cleavage/proteolysis) [1] | P4 Position Various Amino Acids Substrate Activity, TMPRSS2 (percent substrate proteolysis/cleavage) [1] | P3 Position Substrate Activity for TMPRSS2 (percent substrate cleavage/proteolysis) [1] | P4 Position Substrate Activity for TMPRSS2 (percent substrate cleavage/proteolysis) [1] | P2 Position Substrate Activity for matriptase (percent substrate cleavage/proteolysis) [2] | P3 Position Various Amino Acids Substrate Activity, matriptase (percent substrate cleavage/proteolysis) [2] | P3 Position Substrate Activity for matriptase (percent substrate cleavage/proteolysis) [2] | P4 Position Various Amino Acids Substrate Activity, matriptase (percent substrate proteolysis/cleavage) [2] | P4 Position Substrate Activity for matriptase (percent substrate cleavage/proteolysis) [2] | P2 Position Substrate Activity for HGFA (percent substrate cleavage/proteolysis) [3] | P3 Position Substrate Activity for HGFA (percent substrate cleavage/proteolysis) [3] | P4 Position Substrate Activity for HGFA (percent substrate cleavage/proteolysis) [3] | P2 Position Substrate Activity for hepsin (percent substrate cleavage/proteolysis) [4] | P3 Position Substrate Activity for hepsin (percent substrate cleavage/proteolysis) [4] | P4 Position Substrate Activity for hepsin (percent substrate cleavage/proteolysis) [4] | P3 Position Various Amino Acids Substrate Activity, HGFA (percent substrate cleavage/proteolysis) [3] | P4 Position Various Amino Acids Substrate Activity, HGFA (percent substrate proteolysis/cleavage) [3] | P3 Position Various Amino Acids Substrate Activity, hepsin (percent substrate cleavage/proteolysis) [4] | P4 Position Various Amino Acids Substrate Activity, hepsin (percent substrate proteolysis/cleavage) [4]
NC1(C(=O)O)CCCC1 [AC5C] | 0.00% | 0.00% | 17.02% |  |  |  |  |  |  |  |  |  |  |  |  |  |  |  |  | 
N[C@@H](CCCCOCc1ccccc1)C(=O)O [L-Nle(O-Bzl)] | 52.14% |  |  | 71.88% | 63.90% | 0% | 75% | 75.40% | 49% | 48.54% | 0.00% | 30.67% | 16.90% | 0.00% | 82.17% | 91.83% |  |  |  | 
N[C@@H](Cc1ccc(F)cc1)C(=O)O [L-Phe(4-F)] | 100.00% | 14.82% | 21.80% |  |  | 65% | 11% |  | 8% |  | 4.84% |  |  | 32.86% |  |  | 15.01% | 11.22% | 5.16% | 27.78%
O=C(O)[C@@H]1CCCCN1 [L-Pip] | 24.73% | 0.00% | 15.31% |  |  | 10% | 0% |  | 11% |  | 1.75% |  |  | 10.66% |  |  | 0.83% | 9.25% | 1.64% | 34.68%
Cn1cc(C[C@H](N)C(=O)O)c2ccccc21 [L-Trp(Me)] | 32.33% | 21.50% | 16.80% |  |  | 1% | 7% |  | 6% |  | 1.12% |  |  | 7.81% |  |  | 18.14% | 2.49% | 0.00% | 0.00%
CC(C)[C@H](N)C(=O)O [L-Val] | 28.86% | 19.38% | 34.19% |  |  | 8% | 18% |  | 29% |  | 8.33% |  |  | 51.85% |  |  | 9.51% | 11.66% | 16.77% | 43.08%
CC(C)CC[C@H](N)C(=O)O [L-hLeu] | 8.15% | 35.41% | 53.91% |  |  | 5% | 25% |  | 27% |  | 72.69% |  |  | 14.44% |  |  | 23.44% | 14.86% | 13.84% | 41.61%
D-Ala | 0.00% | 0.00% | 27.00% |  |  | 0% | 2% |  | 6% |  | 0.00% |  |  | 0.00% |  |  | 9.84% | 7.11% | 48.09% | 18.44%
D-Arg | 0.00% |  |  | 0.00% | 24.43% | 0% | 8% | 7.82% | 18% | 17.66% | 0.00% | 29.10% | 23.20% | 0.00% | 66.08% | 44.37% |  |  |  | 
L-Met | 8.64% | 45.55% | 38.95% |  |  | 5% | 41% |  |  |  |  |  |  |  |  |  |  |  |  | 
